Measured values reported in patent publication US7932270B2 (Cytokinetics, Inc., priority 2006, dated 2011).
pIC50: −log10 of the molar value.

The compounds below were run against T1, chicken gizzard smooth muscle myosin subfragment-1 chemically crosslinked to cardiac or skeletal actin (Gallus gallus, UniProt P10587) (assay: Smooth muscle myosin ATPase dose response assay (pyruvate kinase/horseradish peroxidase/pyruvate oxidase-coupled, amplex red fluorescence)). Conditions: read-out: IC50 Arithmetic Mean.
T1 construct: chicken gizzard smooth muscle myosin subfragment-1; from tissue; host or cells: chicken gizzard
Type: biochemical
In short: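 EDC/NHS-crosslinked S1–actin, amount set per prep by rate titration. Buffer: 12 mM K-PIPES pH 7.00 (22° C), 100 mM KCl, 2 mM MgCl2, 0.15 mM ATP, 0.1 mM PEP, 2 mM KPi, 0.1 mM amplex red. Read ex 480/em 615 nm; IC50 = midpoint, 4-param Hill fit.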

T1 sequence (P02607 2-151): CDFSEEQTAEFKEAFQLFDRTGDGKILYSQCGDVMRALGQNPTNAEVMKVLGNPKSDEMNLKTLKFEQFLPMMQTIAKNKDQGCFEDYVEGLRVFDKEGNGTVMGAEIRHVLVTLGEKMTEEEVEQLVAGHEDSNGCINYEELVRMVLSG
T1 sequence (P10587 84-789): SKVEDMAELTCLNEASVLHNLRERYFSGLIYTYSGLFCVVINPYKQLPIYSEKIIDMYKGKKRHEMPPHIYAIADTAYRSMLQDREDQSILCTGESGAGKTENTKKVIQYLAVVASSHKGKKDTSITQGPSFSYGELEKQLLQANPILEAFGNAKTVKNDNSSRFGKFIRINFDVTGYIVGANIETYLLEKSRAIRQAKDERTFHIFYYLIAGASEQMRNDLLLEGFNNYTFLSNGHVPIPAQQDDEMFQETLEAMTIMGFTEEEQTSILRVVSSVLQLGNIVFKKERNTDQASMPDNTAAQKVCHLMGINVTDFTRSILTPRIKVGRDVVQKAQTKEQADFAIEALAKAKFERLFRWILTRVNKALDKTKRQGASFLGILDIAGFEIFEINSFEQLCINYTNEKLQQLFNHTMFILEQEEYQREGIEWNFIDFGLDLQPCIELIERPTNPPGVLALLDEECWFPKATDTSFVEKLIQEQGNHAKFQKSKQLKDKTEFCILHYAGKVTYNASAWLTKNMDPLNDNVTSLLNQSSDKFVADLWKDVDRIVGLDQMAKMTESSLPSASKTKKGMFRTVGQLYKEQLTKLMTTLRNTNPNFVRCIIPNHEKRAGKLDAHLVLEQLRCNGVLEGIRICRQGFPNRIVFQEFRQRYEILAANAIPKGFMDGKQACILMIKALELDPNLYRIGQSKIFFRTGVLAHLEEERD

First: Cc1cccc(-c2ccc(C(=O)NCc3cccnc3)c(NCCc3ccccn3)n2)c1 [{6-(3-methylphenyl)-2-[(2-(2-pyridyl)ethyl)amino](3-pyridyl)}-N-(3-pyridylmethyl)carboxamide]
Second: CC(=O)c1ccc(-c2ccc(C(=O)NCc3cccnc3)c(NCCc3ccccn3)n2)cc1 [{6-(4-acetylphenyl)-2-[(2-(2-pyridyl)ethyl)amino](3-pyridyl)}-N-(3-pyridylmethyl)carboxamide]
The pIC50 of the first is 0.47 log units lower: 5.20 for the first, 5.67 for the second. The second is the more potent here.

Compared with `O=C(NCc1cccnc1)c1ccc(-c2ccc(Cl)cc2)nc1NCCc1ccccn1` [{6-(4-chlorophenyl)-2-[(2-(2-pyridyl)ethyl)amino](3-pyridyl)}-N-(3-pyridylmethyl)carboxamide], `N#Cc1ccc(-c2ccc(C(=O)NCc3cccnc3)c(NCCc3ccccn3)n2)cc1` [{6-(4-cyanophenyl)-2-[(2-(2-pyridyl)ethyl)amino](3-pyridyl)}-N-(3-pyridylmethyl)carboxamide] is 0.49 log units lower in pIC50: 6.20 for the first, 5.71 for the second.

Compared with `CCc1ccc(-c2ccc(C(=O)NCc3cccnc3)c(NCCc3ccccn3)n2)cc1` [{6-(4-ethylphenyl)-2-[(2-(2-pyridyl)ethyl)amino](3-pyridyl)}-N-(3-pyridylmethyl)carboxamide], `O=C(NCc1cccnc1)c1ccc(-c2ccc(F)cc2)nc1NCCc1ccccn1` [{6-(4-fluorophenyl)-2-[(2-(2-pyridyl)ethyl)amino](3-pyridyl)}-N-(3-pyridylmethyl)carboxamide] is 0.43 log units higher in pIC50: 5.55 for the first, 5.98 for the second.

Going from `O=C(NCc1cccnc1)c1ccc(-c2ccc(O)cc2)nc1NCCc1ccccn1` [{6-(4-hydroxyphenyl)-2-[(2-(2-pyridyl)ethyl)amino](3-pyridyl)}-N-(3-pyridylmethyl)carboxamide] to `COc1ccc(-c2ccc(C(=O)NCc3cccnc3)c(NCCc3ccccn3)n2)cc1` [{6-(4-methoxyphenyl)-2-[(2-(2-pyridyl)ethyl)amino](3-pyridyl)}-N-(3-pyridylmethyl)carboxamide], the pIC50 falls from 6.23 to 5.97 (0.26 log units). The first is the more potent here.

Compared with `Cc1csc(-c2ccc(C(=O)NCc3cccnc3)c(NCCc3ccccn3)n2)c1` [{6-(4-methyl(2-thienyl))-2-[(2-(2-pyridyl)ethyl)amino](3-pyridyl)}-N-(3-pyridylmethyl)carboxamide], `Cc1cscc1-c1ccc(C(=O)NCc2cccnc2)c(NCCc2ccccn2)n1` [{6-(4-methyl(3-thienyl))-2-[(2-(2-pyridyl)ethyl)amino](3-pyridyl)}-N-(3-pyridylmethyl)carboxamide] is 1.07 log units lower in pIC50: 6.46 for the first, 5.39 for the second. The first is the more potent here.

Going from `Cc1ccc(-c2ccc(C(=O)NCc3cccnc3)c(NCCc3ccccn3)n2)cc1` [{6-(4-methylphenyl)-2-[(2-(2-pyridyl)ethyl)amino](3-pyridyl)}-N-(3-pyridylmethyl)carboxamide] to `COCc1ccccc1-c1ccc(C(=O)NCc2cccnc2)c(NCCc2ccccn2)n1` [{6-[2-(methoxymethyl)phenyl]-2-[(2-(2-pyridyl)ethyl)amino](3-pyridyl)}-N-(3-pyridylmethyl)carboxamide], the pIC50 falls from 6.17 to 4.07 (2.10 log units).

First: CN(C)c1cccc(-c2ccc(C(=O)NCc3cccnc3)c(NCCc3ccccn3)n2)c1 [{6-[3-(dimethylamino)phenyl]-2-[(2-(2-pyridyl)ethyl)amino](3-pyridyl)}-N-(3-pyridylmethyl)carboxamide]
Second: CN(C)c1ccc(-c2ccc(C(=O)NCc3cccnc3)c(NCCc3ccccn3)n2)cc1 [{6-[4-(dimethylamino)phenyl]-2-[(2-(2-pyridyl)ethyl)amino](3-pyridyl)}-N-(3-pyridylmethyl)carboxamide]
The pIC50 of the first is 1.18 log units lower: 4.91 for the first, 6.09 for the second.

First: O=C(NCc1cccnc1)c1ccc(-c2ccc(CO)cc2)nc1NCCc1ccccn1 [{6-[4-(hydroxymethyl)phenyl]-2-[(2-(2-pyridyl)ethyl)amino](3-pyridyl)}-N-(3-pyridylmethyl)carboxamide]
Second: O=C(Nc1ccccn1)c1ccc(-c2ccccc2)nc1NCCc1ccccn1 [{6-phenyl-2-[(2-(2-pyridyl)ethyl)amino](3-pyridyl)}-N-(2-pyridyl)carboxamide]
The pIC50 of the first is 0.47 log units higher: 5.61 for the first, 5.14 for the second.

Going from `O=C(NCc1ccccn1)c1ccc(-c2ccccc2)nc1NCCc1ccccn1` [{6-phenyl-2-[(2-(2-pyridyl)ethyl)amino](3-pyridyl)}-N-(2-pyridylmethyl)carboxamide] to `O=C(NCc1cccs1)c1ccc(-c2ccccc2)nc1NCCc1ccccn1` [{6-phenyl-2-[(2-(2-pyridyl)ethyl)amino](3-pyridyl)}-N-(2-thienylmethyl)carboxamide], the pIC50 falls from 6.33 to 5.76 (0.57 log units).

Compared with `O=C(Nc1cccnc1)c1ccc(-c2ccccc2)nc1NCCc1ccccn1` [{6-phenyl-2-[(2-(2-pyridyl)ethyl)amino](3-pyridyl)}-N-(3-pyridyl)carboxamide], `O=C(NCc1cccnc1)c1ccc(-c2ccccc2)nc1NCCc1ccccn1` [{6-phenyl-2-[(2-(2-pyridyl)ethyl)amino](3-pyridyl)}-N-(3-pyridylmethyl)carboxamide] is 1.02 log units higher in pIC50: 5.27 for the first, 6.29 for the second. The second is the more potent here.

First: O=C(NCc1ccsc1)c1ccc(-c2ccccc2)nc1NCCc1ccccn1 [{6-phenyl-2-[(2-(2-pyridyl)ethyl)amino](3-pyridyl)}-N-(3-thienylmethyl)carboxamide]
Second: O=C(NCC1CCNCC1)c1ccc(-c2ccccc2)nc1NCCc1ccccn1 [{6-phenyl-2-[(2-(2-pyridyl)ethyl)amino](3-pyridyl)}-N-(4-piperidylmethyl)carboxamide]
The pIC50 of the first is 1.81 log units higher: 6.17 for the first, 4.36 for the second. The first is the more potent here.

Compared with `O=C(Nc1ccncc1)c1ccc(-c2ccccc2)nc1NCCc1ccccn1` [{6-phenyl-2-[(2-(2-pyridyl)ethyl)amino](3-pyridyl)}-N-(4-pyridyl)carboxamide], `O=C(NCc1ccncc1)c1ccc(-c2ccccc2)nc1NCCc1ccccn1` [{6-phenyl-2-[(2-(2-pyridyl)ethyl)amino](3-pyridyl)}-N-(4-pyridylmethyl)carboxamide] is 0.61 log units higher in pIC50: 5.28 for the first, 5.89 for the second. The second is the more potent here.

First: O=C(NCc1cc[nH]n1)c1ccc(-c2ccccc2)nc1NCCc1ccccn1 [{6-phenyl-2-[(2-(2-pyridyl)ethyl)amino](3-pyridyl)}-N-(pyrazol-3-ylmethyl)carboxamide]
Second: C=CCNC(=O)c1ccc(-c2ccccc2)nc1NCCc1ccccn1 [{6-phenyl-2-[(2-(2-pyridyl)ethyl)amino](3-pyridyl)}-N-prop-2-enylcarboxamide]
The pIC50 of the first is 0.64 log units higher: 6.15 for the first, 5.51 for the second.

First: O=C(NCc1cccnc1)c1ccc(-c2ccccc2)nc1NCCc1cccs1 [{6-phenyl-2-[(2-(2-thienyl)ethyl)amino](3-pyridyl)}-N-(3-pyridylmethyl)carboxamide]
Second: O=C(NCc1cccnc1)c1ccc(-c2ccccc2)nc1NCCc1cccnc1 [{6-phenyl-2-[(2-(3-pyridyl)ethyl)amino](3-pyridyl)}-N-(3-pyridylmethyl)carboxamide]
The pIC50 of the first is 1.17 log units higher: 6.83 for the first, 5.66 for the second.

First: O=C(NCCc1ccccn1)c1ccc(-c2ccccc2)nc1NCCc1ccccc1 [{6-phenyl-2-[(2-phenylethyl)amino](3-pyridyl)}-N-(2-(2-pyridyl)ethyl)carboxamide]
Second: O=C(NCCc1cccnc1)c1ccc(-c2ccccc2)nc1NCCc1ccccc1 [{6-phenyl-2-[(2-phenylethyl)amino](3-pyridyl)}-N-(2-(3-pyridyl)ethyl)carboxamide]
The pIC50 of the first is 0.23 log units lower: 5.28 for the first, 5.51 for the second.

Compared with `O=C(NCc1cccnc1)c1ccc(-c2ccccc2)nc1NCCc1ccccc1` [{6-phenyl-2-[(2-phenylethyl)amino](3-pyridyl)}-N-(3-pyridylmethyl)carboxamide], `C=CCNC(=O)c1ccc(-c2ccccc2)nc1NCCc1ccccc1` [{6-phenyl-2-[(2-phenylethyl)amino](3-pyridyl)}-N-prop-2-enylcarboxamide] is 0.85 log units lower in pIC50: 6.82 for the first, 5.97 for the second. The first is the more potent here.

First: O=C(NCc1cccnc1)c1ccc(-c2ccccc2)nc1NCCOc1ccccc1 [{6-phenyl-2-[(2-phenyoxyethyl)amino](3-pyridyl)}-N-(3-pyridylmethyl)carboxamide]
Second: O=C(NCc1cccnc1)c1ccc(-c2ccccc2)nc1NCCCc1ccccc1 [{6-phenyl-2-[(3-phenylpropyl)amino](3-pyridyl)}-N-(3-pyridylmethyl)carboxamide]
The pIC50 of the first is 0.54 log units lower: 4.70 for the first, 5.24 for the second.

First: O=C(NCc1cccnc1)c1ccc(-c2ccccc2)nc1NCc1ccccc1 [{6-phenyl-2-[benzylamino](3-pyridyl)}-N-(3-pyridylmethyl)carboxamide]
Second: (2-{[2-(2-oxoimidazolidinyl)ethyl]amino}-6-phenyl(3-pyridyl))-N-(3-pyridylmethyl)carboxamide
The pIC50 of the first is 1.40 log units higher: 5.55 for the first, 4.15 for the second.
